Reference: patent publication US5916906A, “Compositions comprising nicotinylalanine and an inhibitor of glycine conjugation or vitamin B6” (priority 1997, dated 1999)

Legend:
[1] = acute 500 mg/kg racemic NAL (Connick 1992); cited from earlier work
[2] = Urinary N-methylnicotinamide in rats treated with nicotinylalanine (literature); format: in vivo; settings: following nicotinylalanine injection, inferred from urinary N-methylnicotinamide
From the text: As discussed above, these benefits of nicotinylalanine treatment are applicable to other diseases besides neurodegeneration. R. H. Decker, et al. (ibid) reported a 4-5 fold increase in N-methylnicotinamide levels in the urine of rats treated with nicotinylalanine. Since N-methylnicotinamide is a major urinary excretion product of nicotinamide in the rat, increases in the endogenous levels of nicotinamide following nicotinylalanine injection are at least 5 fold.

[3] = rats treated with nicotinylalanine (Decker); cited from earlier work

Structure (SMILES): NC(CC(=O)c1cccnc1)C(=O)O (racemic) [NAL, γ-(3-pyridyl)-γ-oxo-α-aminobutyrate]
- Behavioral effects [1]: not to result in any behavioral effects
- Increase in endogenous nicotinamide levels [2]: at least 5 fold
- Increase in N-methylnicotinamide levels in urine [3]: 4-5 fold
